Laboratory results as given in PMC9481570, “A small molecule antagonist of SMN disrupts the interaction between SMN and RNAP II” (Nature Communications, 2022).

Columns and labels:
SMN Tudor domain [1] = target: T1, SMN Tudor domain (Homo sapiens, UniProt Q16637); assay: ITC binding to Tudor domain of SMN; details: Supplementary Figs. 2, 4 and 11a (VP-ITC); read-out: Kd, ITC binding curve, Tudor domain of SMN
T1 construct: SMN (aa 82–147); His (N, cleaved yes); made in house; host or cells: E. coli BL21 (DE3) Codon plus RIL
T1 sequence (Q16637 82-147): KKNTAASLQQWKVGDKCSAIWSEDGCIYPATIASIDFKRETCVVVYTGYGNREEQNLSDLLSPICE
Text: The coding DNA fragments of following Tudor domains were cloned into pET28-MHL vector: SMN (aa 82–147), UHRF1 (aa 126–285), SMNDC1 (aa 53–130), TDRD3 (aa 554–611), SND1 (aa 650–910), TDRD2 (aa 327–420), FXR1 (aa 2–132), PHF1 (aa 28–87), SGF29 (aa 115–293), JMJD2A (aa 897–1101), 53BP1 (aa 1483–1606), SETDB1 (aa 190–410), LBR (aa 1–67), ZGPAT (aa 120–271). The coding regions of chromodomain of CBX7 (aa 8–62), PWWP domain of DNMT3A (aa 275–417), WD40 repeats of WDR5 (aa 24–334) and CW domain of ZCWPW2 (aa 21–78) were also subcloned into pET28-MHL vector to generate N-terminally His-tagged fusion protein. The MBT repeats of L3MBTL1 (aa 200–522) and L3MBTL2 (aa 170–625) were subcloned into pET28GST-LIC vector to generate N-terminally GST-His-tagged fusion protein. All the plasmids were generated by ligase independent cloning (Vazyme Biotech, C112 or ABclonal Technology, RK21020). […] The proteins were further purified by Superdex75 or Superdex200 gel-filtration column (GE Healthcare) in a buffer containing 20 mM Tris-HCl, pH 7.5, 150 mM NaCl and 1 mM DTT. For crystallization experiments, purified proteins were concentrated to 18 mg/mL for SMN, 23 mg/mL for UHRF1 and 10 mg/mL for TDRD3 in the gel-filtration buffer. All the mutations were introduced with the QuikChange II XL site-directed mutagenesis kit (Stratagene, 200522) and confirmed by DNA sequencing. Mutant proteins were also expressed in E. coli BL21 (DE3) Codon plus RIL and purified using the same procedures described above. The molecular weight of all protein samples was measured by mass spectrometry.
For the ITC measurement, the concentrated proteins were diluted into 20 mM Tris-HCl, pH 7.5, 150 mM NaCl (ITC buffer); the lyophilized compounds were dissolved in the same buffer, and the pH value was adjusted by adding 2 M NaOH or 2 M HCl. The compounds that could not be dissolved in the ITC buffer were dissolved in DMSO with the accessible highest concentration. Compound concentrations were calculated from the mass and the volume of the solvent. For the ITC assay with compound dissolved in DMSO, the protein was diluted by ITC buffer containing same final concentration of DMSO. All measurements were performed in duplicate at 25 °C, using a VP-ITC (MicroCal, Inc.), an iTC-200 (MicroCal, Inc.), or a Nano-ITC (TA, Inc.) microcalorimeter. The protein with a concentration of 50–100 μM was placed in the cell chamber, and the compounds with a concentration of 0.5–2 mM in syringe was injected in 25, 20, or 20 successive injections with a spacing of 180, 150, or 120 s for VP-ITC, iTC-200, or Nano-ITC, respectively, as previously described[30]–[32]. iTC-200 or Nano-ITC data were consistent with those from the VP-ITC instrument, based on ITC results of SMN-compound 1 detected by using all the instruments. Control experiments were performed under identical conditions to determine the heat signals that arise from injection of the compounds into the buffer. Data were fitted using the single-site binding model within the Origin software 7.0 package (MicroCal, Inc.) or the independent model within the Nano-Analyze software package (TA, Inc.).

[2] = tested on: mCherry-SMN cage mutant (W102); assay: Fluorescence colocalization in U2OS cells, mCherry-SMN cage mutant; type: cell-based, human; details: 10 μM, 24 h, W102 mutated
Method: (§1) U2OS cells (ATCC, HTB-96) were plated in a 35 mm FluoroDish with a 0.17 mm coverslip bottom (World Precision Instruments, FD35-100) for 12–24 h and transfected with 1.0 μg mCherry-SMN WT (wild-type) or mutant plasmids. Media was changed 4–6 h after transfection and cells were cultured for another 24 h. 10 μM CCVJ-Cmpd 1 was added for 24 h treatment. Then the treated cells were rinsed by PBS and the media replaced with phenol-free FluoroBright DMEM (Thermo Fisher, A1896701) for analysis by using Zeiss LSM880 microscopy.

SMN Tudor domain [3] = target: T1, SMN Tudor domain; assay: Fluorescence of CCVJ-Cmpd 1 in solution on addition of SMN Tudor domain; type: binding; details: 10 μM SMN Tudor with 10 μM CCVJ-Cmpd 1, in solution
Text: Supplementary Fig. 5 Interaction between Tudor domain of SMN and CCVJ-Cmpd 1 triggers fluorescence signals. a Fluorescence signals of 10 µM SMN Tudor, 10 µM CCVJ-Cmpd 1, and mixture of 10 µM SMN Tudor with 10 µM CCVJ-Cmpd 1 were detected by fluorescence microscope (Nikon, ECLIPSE Ti-E), under the excitation of blue light. The […]
the SMN Tudor domain protein. Exposure time: 1 s. b Fluorescence signals for addition of different concentrations of the SMN Tudor domain protein to 5 µM CCVJ-Cmpd 1 detected by Infinite M1000 Pro microplate reader (Tecan) with an excitation wavelength of 440 nm and an emission wavelength of 460-600 nm. Data shown are representative of three […]

mCherry-SMN = target: T2, mCherry-SMN (Homo sapiens, UniProt Q16637); assay: Fluorescence colocalization in U2OS cells, mCherry-SMN WT; type: cell-based; details: 10 μM, 24 h
T2 construct: the coding DNAs of full-length SMN, SND1 and TDRD3 were cloned into mCherry2-C1 or GFP-C1 vector; expressed in transfected cells; host or cells: U2OS
T2 sequence (Q16637 whole entry): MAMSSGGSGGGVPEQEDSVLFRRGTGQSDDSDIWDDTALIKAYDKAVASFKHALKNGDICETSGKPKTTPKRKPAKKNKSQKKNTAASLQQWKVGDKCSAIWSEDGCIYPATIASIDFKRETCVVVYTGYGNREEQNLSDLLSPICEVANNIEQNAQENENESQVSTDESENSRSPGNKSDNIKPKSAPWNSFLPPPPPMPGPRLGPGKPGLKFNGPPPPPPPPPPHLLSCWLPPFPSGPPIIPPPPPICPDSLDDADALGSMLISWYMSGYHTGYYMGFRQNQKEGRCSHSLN
Method: as §1

SMN = target: T3, SMN (Homo sapiens, UniProt Q16637); details: physiological ligand; read-out: binding affinity (Kd) to SMN; cited from earlier work
T3 construct: endogenous in cells; host or cells: U2OS
T3 sequence (Q16637 whole entry): as above

Row | Kd (SMN Tudor domain [1]) [µM] | fluorescence signal on addition of SMN Tudor domain protein (SMN Tudor domain [3]) | colocalization with mCherry-SMN (mCherry-SMN) | SMILES | colocalization with mCherry-SMN cage mutant [2] | Kd (SMN) [µM]
1 | 22 ± 1 | enhanced | colocalized | N#C/C(=C\c1cc2c3c(c1)CCCN3CCC2)C(=O)NCCNC(=O)Cn1c2c(c(=N)c3c1CCC3)CCC2 [CCVJ-Cmpd 1] | not observed | –
2 | – | – | – | CN=C(NC)NCCC[C@H](N)C(=O)O [symmetric dimethylarginine] | – | 476
